Laboratory results taken from patent publication US9994570B2, “Bridged diazepane orexin receptor antagonists” (MERCK SHARP & DOHME CORP., priority 2014, dated 2018).

Columns and labels:
human orexin-2 receptor [1] = target: T1, human orexin-2 receptor (Homo sapiens, UniProt O43614); conditions: comparison compound disclosed in U.S. Pat. No. 8,685,961; cited from earlier work
T1 construct: expressed in transfected cells; host or cells: CHO cells (grown under G418 selection)
T1 sequence (O43614 1-444): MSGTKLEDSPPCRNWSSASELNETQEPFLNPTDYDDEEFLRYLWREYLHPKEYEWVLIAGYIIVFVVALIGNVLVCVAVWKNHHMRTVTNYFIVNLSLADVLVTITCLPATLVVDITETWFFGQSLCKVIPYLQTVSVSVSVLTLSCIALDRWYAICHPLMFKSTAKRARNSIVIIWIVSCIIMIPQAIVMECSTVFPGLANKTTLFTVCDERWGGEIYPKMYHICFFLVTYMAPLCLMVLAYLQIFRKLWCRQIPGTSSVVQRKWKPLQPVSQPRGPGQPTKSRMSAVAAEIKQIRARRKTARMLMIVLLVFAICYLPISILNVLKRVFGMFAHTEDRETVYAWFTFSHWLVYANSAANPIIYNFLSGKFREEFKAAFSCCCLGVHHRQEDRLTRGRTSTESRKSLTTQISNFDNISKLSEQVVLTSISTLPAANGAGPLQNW

human orexin-2 receptor [2] = target: T1, human orexin-2 receptor; test: FLIPR Ca2+ flux assay, OX2R; format: cell-based; conditions: for IC50: CHO cells expressing the human orexin-2 receptor, agonist 70 pM Ala-6,12 orexin-A; for Fold Selective: OX1R FLIPR / OX2R FLIPR
Method: (§1) The utility of the compounds in accordance with the present invention as orexin receptor OX1R and/or OX2R antagonists may be readily determined without undue experimentation by methodology well known in the art, including the “FLIPR Ca^2+ Flux Assay” (Okumura et al., Biochem. Biophys. Res. Comm. 280:976-981, 2001). In a typical experiment the OX1 and OX2 receptor antagonistic activity of the compounds of the present invention was determined in accordance with the following experimental method. For intracellular calcium measurements, Chinese hamster ovary (CHO) cells expressing the rat orexin-1 receptor or the human orexin-2 receptor, are grown in Iscove's modified DMEM containing 2 mM L-glutamine, […], 1% hypoxanthine-thymidine supplement, 100 U/ml penicillin, 100 μg/ml streptomycin and 10% heat-inactivated fetal calf serum (FCS). The cells are seeded at 20,000 cells/well into Becton-Dickinson black 384-well clear bottom sterile plates coated with poly-D-lysine. All reagents were from GIBCO-Invitrogen Corp. The seeded plates are incubated overnight at 37° C. and 5% CO2. Ala-6,12 human orexin-A as the agonist is prepared as a 1 mM stock solution in 1% bovine serum albumin (BSA) and diluted in assay buffer (HBSS containing 20 mM HEPES, 0.1% BSA and 2.5 mM probenecid, pH7.4) for use in the assay at a final concentration of 70 pM. Test compounds are prepared as 10 mM stock solution in DMSO, then diluted in 384-well plates, first in DMSO, then assay buffer. On the day of the assay, cells are washed 3 times with 100 μl assay buffer and then incubated for 60 min (37° C., 5% CO2) in 60 μl assay buffer containing 1 μM Fluo-4AM ester, 0.02% pluronic acid, and 1% BSA. The dye loading solution is then aspirated and cells are washed 3 times with 100 μl assay buffer. 30 μl of that same buffer is left in each well. Within the Fluorescent Imaging Plate Reader (FLIPR, Molecular Devices), test compounds are added to the plate in a volume of 25 μl, incubated for 5 min and finally 25 μl of agonist is added. Fluorescence is measured for each well at 1 second intervals for 5 minutes and the height of each fluorescence peak is compared to the height of the fluorescence peak induced by 70 pM Ala-6,12 orexin-A with buffer in place of antagonist. For each antagonist, IC50 value (the concentration of compound needed to inhibit 50% of the agonist response) is determined. Alternatively, compound potency can be assessed by a radioligand binding assay (described in Bergman et. al. Bioorg. Med. Chem. Lett. 2008, 18, 1425-1430) in which the inhibition constant (Ki) is determined in membranes prepared from CHO cells expressing either the OX1 or OX2 receptor. The intrinsic orexin receptor antagonist activity of a compound which may be used in the present invention may be determined by these assays.

rat orexin-1 receptor = target: T2, rat orexin-1 receptor (Rattus norvegicus, UniProt P56718); test: FLIPR Ca2+ flux assay, OX1R; format: cell-based; conditions: CHO cells expressing the rat orexin-1 receptor; agonist 70 pM Ala-6,12 orexin-A
T2 construct: expressed in transfected cells; host or cells: CHO cells (grown under G418 selection)
T2 sequence (P56718 1-416): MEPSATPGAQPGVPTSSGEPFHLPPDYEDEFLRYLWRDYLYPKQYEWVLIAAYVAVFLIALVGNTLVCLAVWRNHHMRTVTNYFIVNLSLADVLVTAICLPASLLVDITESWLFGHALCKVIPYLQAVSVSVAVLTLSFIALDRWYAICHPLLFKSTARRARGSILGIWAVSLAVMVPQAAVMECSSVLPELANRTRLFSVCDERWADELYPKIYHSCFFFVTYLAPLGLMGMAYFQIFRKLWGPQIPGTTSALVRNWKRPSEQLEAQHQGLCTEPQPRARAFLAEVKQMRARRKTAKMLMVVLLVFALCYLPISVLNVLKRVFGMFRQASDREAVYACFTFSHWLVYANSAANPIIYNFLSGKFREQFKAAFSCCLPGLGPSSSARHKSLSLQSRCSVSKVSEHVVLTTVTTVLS
Method: as §1

Compound	selectivity between the orexin-1 receptor and the orexin-2 receptor (human orexin-2 receptor [1])	IC50 (human orexin-2 receptor [2]) [nM]	Fold Selective (human orexin-2 receptor [2])	IC50 (rat orexin-1 receptor) [nM]
Cc1ccc(-n2nccn2)c(C(=O)N2CCCN(c3nc4ccccc4o3)CC2)c1 [Example B-3]	greater selectivity for the orexin-1 receptor than for the orexin-2 receptor			
Cc1cc(C)nc(N2CC3CC2CN(C(=O)c2cccnc2N(C)CC(F)F)C3)n1 (single isomer, unassigned) [Example 47]		29	261	7560
Cc1cc(C)nc(N2CC3CC2CN(C(=O)c2nccnc2OCC(F)(F)F)C3)n1 (stereo not shown) [Example 50, 6-(4,6-dimethylpyrimidin-2-yl)-3-{[3-(2,2,2-trifluoroethoxy)pyrazin-2-yl]carbonyl}-3,6-diazabicyclo[3.2.1]octane]		36	>278	> 10000
Cc1cc(C)nc(N2CC3CC2CN(C(=O)c2cccnc2OCC2CC2)C3)n1 (stereo not shown) [Example 39, 3-{[2-(cyclopropyl-methoxy)pyridin-3-yl]carbonyl}-6-(4,6-dimethylpyrimidin-2-yl)-3,6-diazabicyclo-[3.2.1]octane]		13	106	1370
CSc1ccccc1C(=O)N1CC2CC(C1)N(c1nc(C)cc(C)n1)C2 (stereo not shown) [Example 17, 6-(4,6-dimethylpyrimidin-2-yl)-3-{[2-(methylsulfanyl)-phenyl]carbonyl}-3,6-diazabicyclo[3.2.1]octane]		27	92	2470
Cc1cc(C)nc(N2CC3CC2CN(C(=O)c2cccnc2OC2CCCC2)C3)n1 (stereo not shown) [Example 38]		23	47	1080
Cc1cc(C)nc(N2CC3CC2CN(C(=O)c2ccccc2CS(C)(=O)=O)C3)n1 (stereo not shown) [Example 28, 6-(4,6-dimethylpyrimidin-2-yl)-3-({2-[(methylsulfonyl)methyl]phenyl}carbonyl)-3,6-diazabicyclo[3.2.1]octane]		47	>213	> 10000
Cc1cc(C)nc(N2CC3CC2CN(C(=O)c2ccccc2C2(C#N)CC2)C3)n1 (stereo not shown) [Example 29, 1-(2-{[6-(4,6-dimethylpyrimidin-2-yl)-3,6-diazabicyclo[3.2.1]oct-3-yl]carbonyl}-phenyl)-cyclopropanecarbonitrile]		13	86	1120
COCc1ccccc1C(=O)N1CC2CC(C1)N(c1nc(C)cc(C)n1)C2 (stereo not shown) [Example 10, (6-(4,6-dimethylpyrimidin-2-yl)-3,6-diazabicyclo[3.2.1]octan-3-yl)(2-(methoxymethyl)phenyl)methanone]		46	74	3410
Cc1cc(C)nc(N2CC3CC2CN(C(=O)c2cccnc2OCCC(F)(F)F)C3)n1 (stereo not shown) [Example 44, 6-(4,6-dimethylpyrimidin-2-yl)-3-{[2-(3,3,3-trifluoropropoxy)pyridin-3-yl]carbonyl}-3,6-diazabicyclo[3.2.1]octane]		21	44	932
Cc1cc(C)nc(N2CC3CC2CN(C(=O)c2nccnc2OCC(F)(F)C(F)F)C3)n1 (stereo not shown) [Example 51, (6-(4,6-dimethylpyrimidin-2-yl)-3,6-diazabicyclo[3.2.1]octan-3-yl)(3-(2,2,3,3-tetrafluoropropoxy)pyrazin-2-yl)methanone]		24	112	2690
Cc1cc(C)nc(N2CC3CC2CN(C(=O)c2cccnc2OCC(F)F)C3)n1 (stereo not shown) [Example 9, (2-(2,2-difluoroethoxy)pyridin-3-yl)(6-(4,6-dimethylpyrimidin-2-yl)-3,6-diazabicyclo[3.2.1]octan-3-yl)methanone]		15	122	1830
Cc1cc(C)nc(N2CC3CC2CN(C(=O)c2ccccc2OCC(F)F)C3)n1 (stereo not shown) [Example 37, 3-{[2-(2,2-difluoroethoxy)-phenyl]carbonyl}-6-(4,6-dimethylpyrimidin-2-yl)-3,6-diazabicyclo[3.2.1]octane]		14	61	851
